# Results taken from patent US8815909B2, “Diaminocyclohexane compounds and uses thereof” (Bristol-Myers Squibb Company, priority 2011, dated 2014).
# pEC50: −log10 of the molar value. Structures can show the parent of a compound that is named as a salt. Where two headings read alike, the source gives them in different places.
# Molecular target: T1, human Y4 receptor (Homo sapiens, UniProt P50391)
# T1 construct: expressed in transfected cells
# Experiment: NPY4 cAMP HTRF Agonist Assay (inhibitory cAMP assay, Gi activation by Y4 agonism)
# Assay type: cell-based
# Procedure, shortened: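 Y4 agonism read as lowered forskolin-stimulated cAMP (HTRF, 1 h detection at room temperature). Stable human Y4 CHO clone, 5000 cells/well, incubated 30 min at room temperature with compounds plus forskolin and IBMX in PBS.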
# [1] = human Y4 stable CHO clonal cells, forskolin + IBMX, read-out: NPY4 cAMP HTRF Agonist Assay EC50
# [2] = second TABLE 1, R2 is Phenyl-CF3, read-out: hY4 CAMP EC50
# T1 sequence (P50391 whole entry): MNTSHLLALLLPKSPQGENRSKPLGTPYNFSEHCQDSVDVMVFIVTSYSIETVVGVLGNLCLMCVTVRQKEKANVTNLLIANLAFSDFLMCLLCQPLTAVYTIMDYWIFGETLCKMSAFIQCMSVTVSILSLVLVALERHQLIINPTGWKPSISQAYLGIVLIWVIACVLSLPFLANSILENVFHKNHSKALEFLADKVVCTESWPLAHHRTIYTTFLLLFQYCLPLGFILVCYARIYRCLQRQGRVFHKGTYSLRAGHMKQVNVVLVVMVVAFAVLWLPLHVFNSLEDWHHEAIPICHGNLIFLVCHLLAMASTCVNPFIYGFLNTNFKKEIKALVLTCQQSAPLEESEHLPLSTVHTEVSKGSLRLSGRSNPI
Structure (SMILES),pEC50 [1],pEC50 [2]
"C[C@]1(N[C@@H]2CCCC[C@H]2Nc2ncc(-c3ccc(OC(F)(F)F)cc3)o2)CCCN(c2ccc([N+](=O)[O-])cc2)C1 [Example 96, (1R,2R)—N1-((S)-3-Methyl-1-(4-nitrophenyl)piperidin-3-yl)-N2-(5-(4-(trifluoromethoxy)phenyl)oxazol-2-yl)cyclohexane-1,2-diamine bis-trifluoroacetate]",9.00,
"NC(=O)c1cccc(-c2cnc(N[C@@H]3CCCC[C@H]3N[C@H]3CCCN(c4cnc(C(F)(F)F)nc4)C3)o2)c1 [Example 97, 3-(2-(((1R,2R)-2-(((S)-1-(2-(trifluoromethyl)pyrimidin-5-yl)piperidin-3-yl)amino)cyclohexyl)amino)oxazol-5-yl)benzamide]",8.22,
"CCOC(=O)Nc1cccc(-c2cnc(N[C@@H]3CCCC[C@H]3N[C@H]3CCCN(c4cnc(C(F)(F)F)cn4)C3)o2)c1 [Example 98, Ethyl 3-(2-((1R,2R)-2-((S)-1-(5-(trifluoromethyl)pyrazin-2-yl)piperidin-3-ylamino)cyclohexylamino)oxazol-5-yl)phenylcarbamate]",9.15,
"O=C(NC1CC1)c1cccc(-c2cnc(N[C@@H]3CCCC[C@H]3N[C@H]3CCCN(c4ccc(C(F)(F)F)nc4)C3)o2)c1 [Example 99, N-cyclopropyl-(3-(2-((1R,2R)-2((S)-1-(6-trifluoromethyl)pyridin-3yl)piperidin-3-ylamino)cyclohexylamino)oxazol-5-yl)benzamide]",9.10,
"COC(=O)Nc1cccc(-c2cnc(N[C@@H]3CCCC[C@H]3N[C@H]3CCCN(c4ccc(C(F)(F)F)cc4)C3)o2)c1 [Example 100, Methyl (3-(2-((1R,2R)-2(S)-1-(4-trifluoromethyl)phenylpiperidin-3-ylamino)cyclohexylamino)oxazol-5-yl)phenylcarbamate]",8.52,
"CCOC(=O)Nc1cccc(-c2cnc(N[C@@H]3CCCC[C@H]3N[C@H]3CCCN(c4ccc(C(F)(F)F)cc4)C3)o2)c1 [Example 101, Ethyl (3-(2-((1R,2R)-2(S)-1-(4-trifluoromethyl)phenylpiperidin-3-ylamino)cyclohexylamino)oxazol-5-yl)phenylcarbamate]",8.70,
CCOC(=O)Nc1cccc(-c2cnc(N[C@@H]3CCCC[C@H]3N[C@H]3CCCN(c4ccc(C(F)(F)F)nc4)C3)o2)c1 [Example 102],9.40,
"COC(=O)Nc1cccc(-c2cnc(N[C@@H]3CCCC[C@H]3N[C@H]3CCCN(c4cnc(C(F)(F)F)nc4)C3)o2)c1 [Example 103, Methyl (3-(2-((1R,2R)-2((S)-1-(2-trifluoromethyl)pyrimidin-5-yl)piperidin-3-ylamino)cyclohexylamino)oxazol-5-yl)phenylcarbamate]",8.52,
"NC(=O)c1cccc(-c2cnc(N[C@@H]3CCCC[C@H]3N[C@H]3CCCN(c4ccc(C(F)(F)F)cc4)C3)o2)c1 [Example 104, (3-(2-((1R,2R)-2((S)-1-(4-trifluoromethyl)phenyl)piperidin-3-ylamino)cyclohexylamino)oxazol-5-yl)benzamide]",9.70,
"CNC(=O)c1cccc(-c2cnc(N[C@@H]3CCCC[C@H]3N[C@H]3CCCN(c4ccc(C(F)(F)F)cc4)C3)o2)c1 [Example 105, N-Methyl (3-(2-((1R,2R)-2((S)-1-(4-trifluoromethyl)phenyl)piperidin-3-ylamino)cyclohexylamino)oxazol-5-yl)benzamide]",9.70,
"C[C@]1(N[C@@H]2CCCC[C@H]2Nc2ncc(-c3cccc(C(N)=O)c3)o2)CCCN(c2ccc(C(F)(F)F)cc2)C1 [Example 106, 3-(2-(((1R,2R)-2-(((S)-3-Methyl-1-(4-(trifluoromethyl)phenyl)piperidin-3-yl)amino)cyclohexyl)amino)oxazol-5-yl)benzamide]",9.52,
"CCOC(=O)Nc1cccc(-c2cnc(N[C@@H]3CCCC[C@H]3N[C@H]3CCCN(c4cnc(C(F)(F)F)nc4)C3)o2)c1 [Example 107, Ethyl (3-(2-(((1R,2R)-2-(((S)-1-(2-(trifluoromethyl)pyrimidin-5-yl)piperidin-3-yl)amino)cyclohexyl)amino)oxazol-5-yl)phenyl)carbamate]",8.40,
"CC(C)(C)OC(=O)/C=C\c1ccnc(N[C@@H]2CCCC[C@H]2N[C@H]2CCCN(c3ccc(C#N)cc3)C2)c1 [Example 108, (Z)-tert-butyl 3-(2-(((1R,2R)-2-(((S)-1-(4-cyanophenyl)piperidin-3-yl)amino)cyclohexyl)amino)pyridin-4-yl)acrylate]",7.68,
"CC(C)(C)OC(=O)/C=C/c1ccnc(N[C@@H]2CCCC[C@H]2N[C@H]2CCCN(c3ccc(C#N)cc3)C2)c1 [Example 109, (E)-tert-butyl 3-(2-(((1R,2R)-2-(((S)-1-(4-cyanophenyl)piperidin-3-yl)amino)cyclohexyl)amino)pyridin-4-yl)acrylate]",6.92,
"N#Cc1ccc(N2CCC[C@H](N[C@@H]3CCCC[C@H]3Nc3cc(/C=C\C(N)=O)ccn3)C2)cc1 [Example 110, (Z)-3-(2-(((1R,2R)-2-(((S)-1-(4-cyanophenyl)piperidin-3-yl)amino)cyclohexyl)amino)pyridin-4-yl)acrylamide]",6.29,
"CC(C)(C)C(=O)OCc1ccnc(N[C@@H]2CCCC[C@H]2N[C@H]2CCCN(c3ccc(C#N)cc3)C2)c1 [Example 111, (2-(((1R,2R)-2-(((S)-1-(4-cyanophenyl)piperidin-3-yl)amino)cyclohexyl)amino)pyridin-4-yl)methyl pivalate]",6.25,
O=C(Nc1nncs1)c1ccnc(N[C@@H]2CCCC[C@H]2N[C@H]2CCCN(c3ccc(C(F)(F)F)cc3)C2)c1 [Example 112],6.23,
"N#Cc1cnc(N[C@@H]2CCCC[C@H]2N[C@H]2CCCN(c3ccc(C(F)(F)F)cc3)C2)o1 [Example 113, 2-(((1R,2R)-2-(((S)-1-(4-(trifluoromethyl)phenyl)piperidin-3-yl)amino)cyclohexyl)amino)oxazole-5-carbonitrile]",7.04,
"N#Cc1ccnc(N[C@@H]2CCCC[C@H]2N[C@H]2CCCN(c3ccc(C(F)(F)F)cc3)C2)c1 [Example 114, 2-(((1R,2R)-2-(((S)-1-(4-(trifluoromethyl)phenyl)piperidin-3-yl)amino)cyclohexyl)amino)isonicotinonitrile, bis trifluoroacetic acid salt]",7.15,
COC(=O)c1cccc(-c2cnc(N[C@@H]3CCCC[C@H]3N[C@H]3CCCN(c4ccc(C(F)(F)F)cc4)C3)o2)c1 [Example 115],,7.17
O=C(O)c1cccc(-c2cnc(N[C@@H]3CCCC[C@H]3N[C@H]3CCCN(c4ccc(C(F)(F)F)cc4)C3)o2)c1 [Example 116],,6.05
O=C(NC1CC1)c1cccc(-c2cnc(N[C@@H]3CCCC[C@H]3N[C@H]3CCCN(c4ccc(C(F)(F)F)cc4)C3)o2)c1 [Example 117],,9.00
CC(C)(C)NC(=O)c1cccc(-c2cnc(N[C@@H]3CCCC[C@H]3N[C@H]3CCCN(c4ccc(C(F)(F)F)cc4)C3)o2)c1 [Example 118],,7.42
NC(=O)c1cccc(-c2ccnc(N[C@@H]3CCCC[C@H]3N[C@H]3CCCN(c4ccc(C(F)(F)F)cc4)C3)c2)c1 [Example 119],,8.40
C[C@]1(N[C@@H]2CCCC[C@H]2Nc2cc(-c3cccc(C(N)=O)c3)ccn2)CCCN(c2ccc(C(F)(F)F)cc2)C1 [Example 120],,8.52
FC(F)(F)Oc1ccc(-n2nnc(N[C@@H]3CCCC[C@H]3N[C@H]3CCCN(c4ccc(C(F)(F)F)cc4)C3)n2)cc1 [Example 121],,6.04
